Assay results taken from patent publication US20040006070A1, “Intraspinal continuous infusion of midazolam hydrochloride for the treatment of pain” (priority 2002, published 2004).
Counter-ions that a name gives are not always drawn.

Experiment: Bloodwork: complete blood count, electrolytes, extended blood chemistry
Type: in vivo, sheep
Procedure: Indirect blood pressure, pulse recording, pain testing (mechanical stimulus device, cold and warm water baths see description in procedure) and weight were taken on days 1, 3, 7, 15, 22, 29, 36, and 43. Venous blood samples (15 ml drawn from the jugular vein with Vacutainer brand blood collection tubes) for complete blood count, electrolytes, and extended blood chemistry were drawn on days 1, 15, and 43 (mild procedure only light hand restraint necessary).

[1] = sheep Chicken Hawk #87, 5 mg/day, Day 1
[2] = sheep Chicken Hawk #87, 5 mg/day, Day 15
[3] = sheep Chicken Hawk #87, 5 mg/day, Day 43
[4] = sheep Elmer Fudd #437, 5 mg/day, Baseline
[5] = sheep Elmer Fudd #437, 5 mg/day, Day 1
[6] = sheep Elmer Fudd #437, 5 mg/day, Day 15
[7] = sheep Elmer Fudd #437, 5 mg/day, Day 43

Compound `Cc1ncc2n1-c1ccc(Cl)cc1C(c1ccccc1F)=NC2` [Midazolam, midazolam hydrochloride] has a Glucose [1] of 67 mg/dL, a Hct [1] of 34.1% and a Hgb [1] of 11.7 g/dL. The “K+” value [1] was 4.5 mEq/l, the MCH [1] was 30.9 pg and the MCHC [1] was 34.3 g/dL. For the same compound, the MCV [1] was 30.19 fL, the “Na+” value [1] was 150 mEq/l and the Phos [1] was 6.6 mg/dL. The “Platlet Count” value [1] was 1.28e+06 µL⁻¹, the RBC [1] was 1.1e+07 µL⁻¹ and the “Total Bili” value [1] was 0.1 mg/dL. The “Total Prot” value [1] was 5.7 g/dL, the WBC [1] was 6000 µL⁻¹ and the ALT [2] was 6 U/L. For the same compound, the AST [2] was 58 U/L, the Albumin [2] was 3.8 g/dL and the “Alk Phos” value [2] was 79 U/L. It also gave a BUN [2] of 17 mg/dL, a CPK [2] of 425 U/L and a Cholesterol [2] of 61 mg/dL. The Creatinine [2] was 1.3 mg/dL, the “Differential Count: Atyp lym” value [2] was 0% and the “Differential Count: Baso” value [2] was 1%. For the same compound, the “Differential Count: Eosin” value [2] was 4%, the “Differential Count: Lymph” value [2] was 62% and the “Differential Count: Mono” value [2] was 4%. The “Differential Count: Seg” value [2] was 29%, the “Gamma GT” value [2] was 64 U/L and the Glucose [2] was 79 mg/dL. The Hct [2] was 29.8%, the Hgb [2] was 10.0 g/dL and the “K+” value [2] was 4.7 mEq/l. The MCH [2] was 10.4 pg, the MCHC [2] was 33.6 g/dL and the MCV [2] was 30.8 fL. For the same compound, the “Na+” value [2] was 148 mEq/l, the Phos [2] was 5.0 mg/dL and the “Platlet Count” value [2] was 1.018e+06 µL⁻¹. The RBC [2] was 9.7e+06 µL⁻¹, the “Total Bili” value [2] was 0.1 mg/dL and the “Total Prot” value [2] was 6.2 g/dL. The WBC [2] was 5690 µL⁻¹, the ALT [3] was 8 U/L and the AST [3] was 62 U/L. For the same compound, the Albumin [3] was 3.8 g/dL, the “Alk Phos” value [3] was 149 U/L and the BUN [3] was 14 mg/dL. For the same compound, the CPK [3] was 61 U/L, the Cholesterol [3] was 62 mg/dL and the Creatinine [3] was 1.1 mg/dL. For the same compound, the “Differential Count: Atyp lym” value [3] was 1%, the “Differential Count: Baso” value [3] was 1% and the “Differential Count: Eosin” value [3] was 5%. The “Differential Count: Lymph” value [3] was 53%, the “Differential Count: Mono” value [3] was 3% and the “Differential Count: Seg” value [3] was 37%. The “Gamma GT” value [3] was 55 U/L, the Glucose [3] was 82 mg/dL and the Hct [3] was 32.3%. The Hgb [3] was 10.7 g/dL, the “K+” value [3] was 5.0 mEq/l and the MCH [3] was 10.5 pg. For the same compound, the MCHC [3] was 33.0 g/dL, the MCV [3] was 31.7 fL and the “Na+” value [3] was 147 mEq/l. For the same compound, the Phos [3] was 6.5 mg/dL, the “Platlet Count” value [3] was 891000 µL⁻¹ and the RBC [3] was 1.02e+07 µL⁻¹. For the same compound, the “Total Bili” value [3] was 0.1 mg/dL, the “Total Prot” value [3] was 6.5 g/dL and the WBC [3] was 5130 µL⁻¹. For the same compound, the “Differential Count: Atyp lym” value [4] was 0%, the “Differential Count: Bands” value [4] was 0% and the “Differential Count: Eosin” value [4] was 54%. The “Differential Count: Lymph” value [4] was 35%, the “Differential Count: Mono” value [4] was 9% and the “Differential Count: Seg” value [4] was 51%. For the same compound, the Hct [4] was 38.5%, the Hgb [4] was 13.4 g/dL and the MCH [4] was 12.0 pg. The MCHC [4] was 34.7 G/dl, the MCV [4] was 34.5 fL and the “Platlet Count” value [4] was 562000 µL⁻¹. For the same compound, the RBC [4] was 1.12e+07 µL⁻¹, the WBC [4] was 5320 µL⁻¹ and the ALT [5] was 8 U/L. The AST [5] was 70 U/L, the Albumin [5] was 4.1 g/dL and the “Alk Phos” value [5] was 49 U/L. The BUN [5] was 17 mg/dL, the CPK [5] was 49 U/L and the Cholesterol [5] was 78 mg/dL. The Creatinine [5] was 1.3 mg/dL, the “Differential Count: Atyp lym” value [5] was 0% and the “Differential Count: Bands” value [5] was 1%. The “Differential Count: Eosin” value [5] was 1%, the “Differential Count: Lymph” value [5] was 31% and the “Differential Count: Mono” value [5] was 6%. For the same compound, the “Differential Count: Seg” value [5] was 61%, the “Gamma GT” value [5] was 51 U/L and the Glucose [5] was 104 mg/dL. For the same compound, the Hct [5] was 36.1%, the Hgb [5] was 12.4 g/dL and the “K+” value [5] was 4.7 mEq/l. For the same compound, the MCH [5] was 11.4 pg, the MCHC [5] was 34.3 G/dl and the MCV [5] was 33.4 fL. For the same compound, the “Na+” value [5] was 150 mEq/l, the Phos [5] was 5.9 mg/dL and the “Platlet Count” value [5] was 788000 µL⁻¹. The RBC [5] was 1.08e+07 µL⁻¹, the “Total Bili” value [5] was 0.1 mg/dL and the “Total Prot” value [5] was 7.4 g/dL. For the same compound, the WBC [5] was 6600 µL⁻¹, the ALT [6] was 6 U/L and the AST [6] was 67 U/L. For the same compound, the Albumin [6] was 3.8 g/dL, the “Alk Phos” value [6] was 88 U/L and the BUN [6] was 15 mg/dL. The CPK [6] was 77 U/L, the Cholesterol [6] was 74 mg/dL and the Creatinine [6] was 1.2 mg/dL. For the same compound, the “Differential Count: Atyp lym” value [6] was 0%, the “Differential Count: Bands” value [6] was 0% and the “Differential Count: Eosin” value [6] was 10%. The “Differential Count: Lymph” value [6] was 39%, the “Differential Count: Mono” value [6] was 2% and the “Differential Count: Seg” value [6] was 49%. The “Gamma GT” value [6] was 54 U/L, the Glucose [6] was 73 mg/dL and the Hct [6] was 37.3%. The Hgb [6] was 12.7 g/dL, the “K+” value [6] was 4.7 mEq/l and the MCH [6] was 11.2 pg. The MCHC [6] was 34.1 G/dl, the MCV [6] was 32.8 fL and the “Na+” value [6] was 149 mEq/l. For the same compound, the Phos [6] was 6.6 mg/dL, the “Platlet Count” value [6] was 677000 µL⁻¹ and the RBC [6] was 1.14e+07 µL⁻¹. For the same compound, the “Total Bili” value [6] was 0.1 mg/dL, the “Total Prot” value [6] was 6.8 g/dL and the WBC [6] was 4990 µL⁻¹. The ALT [7] was 9 U/L, the AST [7] was 61 U/L and the Albumin [7] was 4.1 g/dL. For the same compound, the “Alk Phos” value [7] was 72 U/L and the BUN [7] was 16 mg/dL.
